Experimental data taken from ChEMBL document CHEMBL1159273, “[Cytotoxicity of aspidospermane indole alkaloids with a modified tryptamine chain]” (J Nat Prod, 1995).
pIC50: −log10 of the molar value.

Each molecule was assayed on L1210 (assay: Cytotoxicity against mouse L1210 cells after 48 hrs by MTT method). Conditions: L1210, 48 h.
Type: functional, cell-based

**Q.** How did the pIC50 turn out when `CC[C@]12CCCN3C[C@@H](Br)[C@@]4(c5ccccc5N[C@H]4[C@@](Cl)(C(=O)OC)C1)[C@@H]32` was run?
**A.** 4.33

**Q.** How did the pIC50 turn out when `CC[C@]12CCCN3[C@@H](OC)C[C@]4(C(=Nc5ccccc54)[C@@](Cl)(C(=O)OC)C1)[C@@H]32` was run?
**A.** 5.51

**Q.** How did the pIC50 turn out when `CC[C@]12CCCN3CC[C@@]4(c5ccccc5N5[C@H]4[C@]5(C(=O)OC)C1)[C@@H]32` was run?
**A.** 3.81

**Q.** How did the pIC50 turn out when `CC[C@]12CCCN3C[C@@H](Br)[C@@]4(c5ccccc5N5[C@H]4[C@]5(C(=O)OC)C1)[C@@H]32` was run?
**A.** 3.85

**Q.** `CC[C@]12CCC[N+]3([O-])CC[C@]4(C(=Nc5ccccc54)[C@@](Cl)(C(=O)OC)C1)[C@H]23` (some centres not stated) was tested. Which pIC50 did it give?
**A.** 4.56

**Q.** How did the pIC50 turn out when `CC[C@]12CCC[N+]3([O-])C[C@@H](Br)[C@]4(C(=Nc5ccccc54)[C@@](Cl)(C(=O)OC)C1)[C@H]23` (some centres not stated) was run?
**A.** 4.85

**Q.** With `COc1cccc2c1C(=O)c1c(O)c3c(c(O)c1C2=O)C[C@@](O)(C(=O)CO)C[C@@H]3O[C@H]1C[C@H](N)[C@H](O)[C@H](C)O1` [DOXORUBICIN] as the molecule, how does the pIC50 read?
**A.** 7.52
